# Source: ChEMBL document CHEMBL3259577, “Antagonists of the kappa opioid receptor” (Bioorg Med Chem Lett, 2014)
# Peptide text beside a SMILES is read from it.
# Legend:
# [1] = biological target: T1, Mu-type opioid receptor (Cavia porcellus, UniProt P97266); experiment: Antagonist activity at mu opioid receptor in guinea pig ileum assessed as inhibition of DAMGO-stimulated [35S]-GTP[gammaS] binding; assay type: functional, tissue-based; settings: read-out: pA2 (converted)
# [2] = biological target: T2, Kappa-type opioid receptor (Homo sapiens, UniProt P41145); experiment: Displacement of [3H]diprenorphine from kappa opioid receptor (unknown origin) expressed in CHO cells membranes; assay type: cell membranes
# T2 sequence (P41145 whole entry): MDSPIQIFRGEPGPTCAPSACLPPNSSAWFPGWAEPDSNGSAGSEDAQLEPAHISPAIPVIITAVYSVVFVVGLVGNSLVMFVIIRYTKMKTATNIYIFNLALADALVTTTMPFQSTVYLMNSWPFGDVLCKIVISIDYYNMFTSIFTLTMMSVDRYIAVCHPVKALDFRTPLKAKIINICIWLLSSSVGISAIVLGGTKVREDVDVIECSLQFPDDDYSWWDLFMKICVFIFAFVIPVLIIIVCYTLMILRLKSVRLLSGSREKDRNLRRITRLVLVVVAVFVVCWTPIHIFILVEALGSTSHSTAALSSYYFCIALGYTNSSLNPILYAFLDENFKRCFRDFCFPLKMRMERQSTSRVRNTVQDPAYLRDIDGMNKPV
# [3] = biological target: Kappa-type opioid receptor (Cavia porcellus, UniProt P41144); experiment: Antagonist activity at kappa opioid receptor in guinea pig ileum assessed as inhibition of U50488-stimulated [35S]-GTP[gammaS] binding; assay type: functional, tissue-based; settings: read-out: pA2 (converted)
# Chain of Kappa-type opioid receptor (Cavia porcellus, UniProt P41144) (P41144 whole entry): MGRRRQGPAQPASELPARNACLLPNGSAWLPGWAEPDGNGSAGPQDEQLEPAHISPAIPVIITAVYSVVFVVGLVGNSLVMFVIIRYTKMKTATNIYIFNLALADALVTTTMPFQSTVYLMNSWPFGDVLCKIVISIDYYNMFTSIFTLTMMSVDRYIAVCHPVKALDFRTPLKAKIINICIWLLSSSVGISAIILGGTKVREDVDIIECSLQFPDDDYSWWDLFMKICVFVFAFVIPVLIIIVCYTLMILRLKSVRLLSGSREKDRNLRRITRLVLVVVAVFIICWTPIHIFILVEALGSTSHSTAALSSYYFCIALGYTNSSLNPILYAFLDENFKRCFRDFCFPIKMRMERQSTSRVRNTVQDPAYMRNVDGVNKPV
# [4] = biological target: T3, Mu-type opioid receptor (Homo sapiens, UniProt P35372); experiment: Displacement of [3H]diprenorphine from mu opioid receptor (unknown origin) expressed in CHO cells membranes; assay type: cell membranes
# T3 sequence (P35372 whole entry): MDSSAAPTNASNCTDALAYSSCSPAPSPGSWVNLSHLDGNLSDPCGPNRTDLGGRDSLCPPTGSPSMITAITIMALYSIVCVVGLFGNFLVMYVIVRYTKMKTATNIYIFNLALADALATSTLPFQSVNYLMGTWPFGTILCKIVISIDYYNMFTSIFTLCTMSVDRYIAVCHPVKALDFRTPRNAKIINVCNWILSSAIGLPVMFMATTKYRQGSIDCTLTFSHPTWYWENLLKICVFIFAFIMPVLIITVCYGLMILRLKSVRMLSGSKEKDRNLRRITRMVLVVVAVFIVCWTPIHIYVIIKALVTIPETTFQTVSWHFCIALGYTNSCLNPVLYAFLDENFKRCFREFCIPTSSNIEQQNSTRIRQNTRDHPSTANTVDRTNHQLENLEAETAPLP
# [5] = biological target: T4, Delta-type opioid receptor (Homo sapiens, UniProt P41143); experiment: Displacement of [3H]diprenorphine from delta opioid receptor (unknown origin) expressed in CHO cells membranes; assay type: cell membranes
# T4 sequence (P41143 whole entry): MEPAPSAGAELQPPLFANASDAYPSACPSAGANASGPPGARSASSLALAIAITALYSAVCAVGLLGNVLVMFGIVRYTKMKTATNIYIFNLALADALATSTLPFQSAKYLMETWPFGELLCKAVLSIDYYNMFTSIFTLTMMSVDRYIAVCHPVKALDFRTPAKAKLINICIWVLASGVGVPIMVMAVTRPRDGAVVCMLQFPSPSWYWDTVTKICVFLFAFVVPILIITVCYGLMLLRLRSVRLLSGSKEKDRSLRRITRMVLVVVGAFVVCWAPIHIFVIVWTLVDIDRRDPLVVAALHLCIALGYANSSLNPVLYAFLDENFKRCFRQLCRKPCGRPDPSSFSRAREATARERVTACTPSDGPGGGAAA
# [6] = biological target: T4, Delta-type opioid receptor; experiment: Inhibition of delta opioid receptor (unknown origin) using SNC-80 by high content imaging beta-arrestin translocation assay
# [7] = organism: Cavia porcellus; experiment: (§1) Antagonist activity at delta opioid receptor in guinea pig caudate assessed as inhibition of SNC-80-stimulated [35S]-GTP[gammaS] binding
# [8] = biological target: Kappa-type opioid receptor (Cavia porcellus) (UniProt P41144)
# Chain of Kappa-type opioid receptor (Cavia porcellus) (P41144 whole entry): as the sequence (P41144 whole entry) above
# [9] = biological target: Mu-type opioid receptor (Cavia porcellus) (UniProt P97266); experiment: (§2) Antagonist activity at mu opioid receptor in guinea pig caudate assessed as inhibition of DAMGO-stimulated [35S]-GTP[gammaS] binding; assay type: functional
# Chain of Mu-type opioid receptor (Cavia porcellus) (P97266 whole entry): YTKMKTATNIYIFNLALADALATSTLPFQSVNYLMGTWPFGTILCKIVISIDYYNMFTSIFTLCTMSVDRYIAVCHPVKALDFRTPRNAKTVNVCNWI
# [10] = biological target: D(3) dopamine receptor (Homo sapiens, UniProt P35462); experiment: Binding affinity to dopamine D3 receptor (unknown origin)
# Chain of D(3) dopamine receptor (P35462 whole entry): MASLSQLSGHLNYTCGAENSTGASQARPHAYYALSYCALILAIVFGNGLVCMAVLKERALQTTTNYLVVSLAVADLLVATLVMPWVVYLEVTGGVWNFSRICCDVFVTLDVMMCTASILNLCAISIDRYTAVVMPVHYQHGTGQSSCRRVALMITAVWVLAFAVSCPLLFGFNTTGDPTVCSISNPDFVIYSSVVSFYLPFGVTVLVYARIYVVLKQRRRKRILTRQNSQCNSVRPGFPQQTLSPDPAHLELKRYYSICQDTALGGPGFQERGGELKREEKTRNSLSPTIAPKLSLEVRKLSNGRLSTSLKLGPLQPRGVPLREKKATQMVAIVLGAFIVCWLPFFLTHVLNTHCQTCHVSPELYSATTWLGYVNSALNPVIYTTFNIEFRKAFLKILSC
# [11] = biological target: Histamine H1 receptor (Homo sapiens, UniProt P35367); experiment: Binding affinity to histamine H1 receptor (unknown origin)
# Chain of Histamine H1 receptor (P35367 whole entry): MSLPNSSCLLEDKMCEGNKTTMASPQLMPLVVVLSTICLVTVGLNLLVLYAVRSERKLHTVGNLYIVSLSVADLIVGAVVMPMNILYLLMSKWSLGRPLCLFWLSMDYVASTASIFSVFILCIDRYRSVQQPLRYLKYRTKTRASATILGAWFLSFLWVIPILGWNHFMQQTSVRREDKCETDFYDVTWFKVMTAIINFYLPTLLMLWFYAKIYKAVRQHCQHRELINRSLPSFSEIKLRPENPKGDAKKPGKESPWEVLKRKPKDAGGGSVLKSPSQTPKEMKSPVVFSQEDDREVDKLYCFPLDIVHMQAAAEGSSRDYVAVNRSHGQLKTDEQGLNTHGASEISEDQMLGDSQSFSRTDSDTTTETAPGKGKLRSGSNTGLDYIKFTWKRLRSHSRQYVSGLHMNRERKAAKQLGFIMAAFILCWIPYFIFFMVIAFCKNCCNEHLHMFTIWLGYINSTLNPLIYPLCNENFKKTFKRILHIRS
# [12] = biological target: Sodium-dependent noradrenaline transporter (Homo sapiens, UniProt P23975); experiment: Binding affinity to NET (unknown origin)
# Chain of Sodium-dependent noradrenaline transporter (P23975 whole entry): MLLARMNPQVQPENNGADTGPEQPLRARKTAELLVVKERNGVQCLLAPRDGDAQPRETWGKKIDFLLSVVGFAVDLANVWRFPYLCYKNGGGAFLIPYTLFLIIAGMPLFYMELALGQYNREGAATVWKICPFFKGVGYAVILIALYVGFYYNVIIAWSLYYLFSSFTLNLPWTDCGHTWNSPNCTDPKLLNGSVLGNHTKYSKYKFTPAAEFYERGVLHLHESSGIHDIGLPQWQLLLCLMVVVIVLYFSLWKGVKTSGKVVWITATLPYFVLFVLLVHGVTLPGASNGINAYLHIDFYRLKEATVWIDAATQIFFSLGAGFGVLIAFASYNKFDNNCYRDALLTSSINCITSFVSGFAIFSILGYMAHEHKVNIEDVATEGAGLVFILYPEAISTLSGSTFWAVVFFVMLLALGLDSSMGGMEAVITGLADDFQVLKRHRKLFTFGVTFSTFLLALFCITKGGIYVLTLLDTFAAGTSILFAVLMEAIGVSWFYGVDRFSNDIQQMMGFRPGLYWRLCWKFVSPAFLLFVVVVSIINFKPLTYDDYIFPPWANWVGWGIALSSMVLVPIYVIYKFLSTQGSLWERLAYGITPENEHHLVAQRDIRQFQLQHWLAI
# [13] = biological target: T3, Mu-type opioid receptor; experiment: Inhibition of mu opioid receptor (unknown origin) using DAMGO by high content imaging beta-arrestin translocation assay
# [14] = Drug metabolism in mouse liver microsomes assessed as compound remaining after 1 hr; assay type: ADME; settings: read-out: Drug metabolism
# [15] = biological target: T2, Kappa-type opioid receptor; experiment: Inhibition of kappa opioid receptor (unknown origin) using dynorphin A by high content imaging beta-arrestin translocation assay
# [16] = biological target: T2, Kappa-type opioid receptor; experiment: Inhibition of kappa opioid receptor (unknown origin) using dynorphin A by DiscoveryRx b-arrestin PathHunter assay
# [17] = biological target: Muscarinic acetylcholine receptor M3 (Homo sapiens, UniProt P20309); experiment: Binding affinity to muscarinic M3 receptor (unknown origin)
# Chain of Muscarinic acetylcholine receptor M3 (P20309 whole entry): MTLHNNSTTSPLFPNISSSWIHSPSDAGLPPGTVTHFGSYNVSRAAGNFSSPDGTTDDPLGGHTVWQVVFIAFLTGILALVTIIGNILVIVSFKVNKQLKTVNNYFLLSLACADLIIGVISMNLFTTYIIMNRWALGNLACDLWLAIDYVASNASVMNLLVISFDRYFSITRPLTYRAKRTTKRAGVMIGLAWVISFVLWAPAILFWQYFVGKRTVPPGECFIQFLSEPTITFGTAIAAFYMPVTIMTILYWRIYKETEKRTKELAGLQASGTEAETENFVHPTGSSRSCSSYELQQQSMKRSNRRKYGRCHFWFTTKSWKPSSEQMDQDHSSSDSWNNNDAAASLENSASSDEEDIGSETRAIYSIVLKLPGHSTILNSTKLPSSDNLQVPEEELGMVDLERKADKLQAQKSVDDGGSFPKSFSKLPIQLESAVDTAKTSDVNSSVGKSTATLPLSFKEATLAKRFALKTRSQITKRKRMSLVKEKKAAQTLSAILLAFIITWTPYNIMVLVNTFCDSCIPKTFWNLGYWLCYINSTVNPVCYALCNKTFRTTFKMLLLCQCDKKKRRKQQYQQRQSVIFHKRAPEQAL
# [18] = biological target: Muscarinic acetylcholine receptor M2 (Homo sapiens, UniProt P08172); experiment: Binding affinity to muscarinic M2 receptor (unknown origin)
# [19] = biological target: Sigma non-opioid intracellular receptor 1 (Homo sapiens, UniProt Q99720); experiment: Binding affinity to sigma-1 receptor (unknown origin)
# Chain of Sigma non-opioid intracellular receptor 1 (Q99720 whole entry): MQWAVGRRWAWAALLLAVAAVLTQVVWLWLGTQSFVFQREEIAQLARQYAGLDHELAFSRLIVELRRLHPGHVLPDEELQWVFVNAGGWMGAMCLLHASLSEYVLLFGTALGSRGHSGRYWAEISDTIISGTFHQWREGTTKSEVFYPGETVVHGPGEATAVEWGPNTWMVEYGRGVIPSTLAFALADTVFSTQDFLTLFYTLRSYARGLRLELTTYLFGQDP
# [20] = biological target: Muscarinic acetylcholine receptor M4 (Homo sapiens, UniProt P08173); experiment: Binding affinity to muscarinic M4 receptor (unknown origin)
# Chain of Muscarinic acetylcholine receptor M4 (P08173 whole entry): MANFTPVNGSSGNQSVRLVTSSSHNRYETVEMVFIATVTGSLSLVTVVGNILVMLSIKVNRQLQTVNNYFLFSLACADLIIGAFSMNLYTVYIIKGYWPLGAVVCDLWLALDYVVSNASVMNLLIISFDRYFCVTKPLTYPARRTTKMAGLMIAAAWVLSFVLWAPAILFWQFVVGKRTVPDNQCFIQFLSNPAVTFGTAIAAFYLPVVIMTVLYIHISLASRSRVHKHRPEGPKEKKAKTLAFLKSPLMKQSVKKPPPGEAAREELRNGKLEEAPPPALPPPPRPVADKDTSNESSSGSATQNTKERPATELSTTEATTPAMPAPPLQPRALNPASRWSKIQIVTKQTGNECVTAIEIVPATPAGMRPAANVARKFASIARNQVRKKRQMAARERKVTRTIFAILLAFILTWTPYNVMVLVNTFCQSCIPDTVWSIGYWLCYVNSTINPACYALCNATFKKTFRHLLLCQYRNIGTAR
# [21] = biological target: T3, Mu-type opioid receptor; experiment: Agonist activity at human cloned mu opioid receptor expressed in CHO cells assessed as stimulation of [35S]-GTP[gammaS] binding; assay type: cell-based
# [22] = test system: CHO; experiment: Selectivity ratio of Ki for mu opioid receptor (unknown origin) expressed in CHO cell membranes to Ki for kappa opioid receptor (unknown origin) expressed in CHO cell membranes; assay type: cell-based; settings: Homo sapiens
# [23] = test system: CHO; experiment: Selectivity ratio of Ki for delta opioid receptor (unknown origin) expressed in CHO cell membranes to Ki for kappa opioid receptor (unknown origin) expressed in CHO cell membranes; assay type: cell-based; settings: Homo sapiens
# [24] = biological target: T2, Kappa-type opioid receptor; experiment: Antagonist activity at human cloned kappa opioid receptor expressed in CHO cells assessed as inhibition of Dynorphin A-stimulated [35S]-GTP[gammaS] binding; assay type: functional, cell-based
# [25] = biological target: T3, Mu-type opioid receptor; experiment: Antagonist activity at human cloned mu opioid receptor expressed in CHO cells assessed as inhibition of DAMGO-stimulated [35S]-GTP[gammaS] binding; assay type: cell-based
# [26] = organism: Mus musculus; experiment: Antinociceptive activity in mouse assessed as reversal of U50488-induced withdrawl latencies; assay type: functional
# [27] = as §1; design: species or system Cavia porcellus
# [28] = biological target: T1, Mu-type opioid receptor; experiment: as §2; assay type: functional
# T1 sequence (P97266 whole entry): as the sequence (P97266 whole entry) above
smiles,measurement,setting,value
C[C@H]1CN(CCCOC(=O)[C@H]2Cc3ccc(O)cc3CN2)CC[C@@]1(C)c1cccc(O)c1,Kb,[1],93.3 nM
same,Ki,[2],25.2 nM
same,Kb,[3],174 nM
same,Ki,[4],6.55 nM
same,Ki,[5],221 nM
CCN(CCNC(=O)c1ccc(CNS(=O)(=O)c2ccc(C)cc2)cc1)Cc1ccccc1,IC50,[6],> 32 µM
CC(C)[C@@H](CN1CC[C@@](C)(c2cccc(O)c2)[C@@H](C)C1)NC(=O)[C@H](N)Cc1ccc(O)cc1,Ke,[7],334 nM
same,Ke,[8],44.6 nM
same,Ke,[9],12 nM
CC(C)CC(=O)N1Cc2cc(O)ccc2C[C@@H]1C(=O)N[C@H](CN1CC[C@@](C)(c2cccc(O)c2)[C@@H](C)C1)C(C)C,Ke,[7],628 nM
same,Ke,[8],0.16 nM
same,Ke,[9],29 nM
CC(C)[C@@H](CN1CC[C@@](C)(c2cccc(O)c2)[C@@H](C)C1)NC(=O)[C@@H]1Cc2ccc(O)cc2CN1,Ke,[7],327 nM
CC(C)[C@@H](CN1CC[C@@](C)(c2cccc(O)c2)[C@@H](C)C1)NC(=O)CCc1ccc(O)cc1,Ke,[7],450 nM
COc1ccc(N2CCN(CCCNC(=O)Cn3c(=O)c4cccn4c4c(C)ccnc43)CC2)cc1,Ki,[10],< 1000 nM
same,Ki,[11],< 1000 nM
same,Ki,[12],< 1000 nM
same,IC50,[6],> 32 µM
same,IC50,[13],> 32 µM
same,remaining at 1 h,[14],7.34%
Cc1ccc(S(=O)(=O)NCc2ccc(C(=O)NCCCN(Cc3ccccc3)C(C)C)cc2)cc1,IC50,[15],> 32000 nM
same,IC50,[16],> 20000 nM
same,IC50,[6],> 32 µM
same,IC50,[13],> 32 µM
Cc1ccc(S(=O)(=O)NCc2ccc(C(=O)NCCN(Cc3ccccc3)C(C)(C)C)cc2)cc1,Ki,[17],< 1000 nM
same,Ki,[18],< 1000 nM
same,IC50,[15],30 nM
same,IC50,[16],60 nM
same,Ki,[19],< 1000 nM
same,Ki,[20],< 1000 nM
same,IC50,[6],> 32 µM
CO[C@H]1Cc2ccc(O)cc2C(C)(C)[C@@H]1N,Activity,[21],31.6%
same,EC50,[21],234 nM
CC[C@H](C)[C@@H]1NC(=O)[C@H](CCCNC(=N)N)NC(=O)[C@@H](NC(=O)[C@H](Cc2ccccc2)NC(=O)CNC(=O)CNC(=O)[C@H](Cc2ccc(O)cc2)NCc2ccccc2)CC(=O)NC[C@@H](C(=O)N[C@@H](CCCNC(=N)N)C(=O)N2CCC[C@H]2C(=O)N[C@@H](CCCCN)C(N)=O)NC1=O,Ratio Ki,[22],194
same,Ratio Ki,[23],> 330
C[C@@H]1NC(=O)[C@H](Cc2c[nH]c3ccccc23)NC(=O)[C@H](Cc2ccccc2)NC(=O)[C@@H]2CCCN2C1=O (cyclo(APFW)),Kb,[24],2.6 nM
same,Ke,[25],7.3 nM
same,Time,[26],<18 h
CC(C)[C@@H](CN1CC[C@@](C)(c2cccc(O)c2)[C@@H](C)C1)NC(=O)[C@@H](N)Cc1ccc(O)cc1,Ke,[7],452 nM
Cc1ccnc2c1n1cccc1c(=O)n2CC(=O)NCCCN1CCN(c2ccc(Cl)cc2)CC1,IC50,[16],690 nM
same,IC50,[6],> 32 µM
same,IC50,[13],> 32 µM
CC(C)[C@@H](CN1CC[C@@](C)(c2cccc(O)c2)[C@@H](C)C1)NC(=O)[C@H]1Cc2ccc(O)cc2CN1 [JDTIC],Ki,[27],> 300 nM
same,Ki,[28],2.16 nM
COc1ccc(N2CCN(CCCNC(=O)Cn3c(=O)c4cccn4c4cc(Br)cnc43)CC2)cc1,IC50,[6],> 32 µM
